Earlier results in US20220016128A1, “METHODS, SYSTEM, AND KIT FOR MONITORING, DIAGNOSING, AND TREATING IMPULSIVE AGGRESSION” (Supernus Pharmaceuticals, Inc., priority 2016, published 2022).

Tests used:
[1] = acidic to slightly acidic media versus neutral to slightly alkaline pH (physiologic pH range of the gastro-intestinal tract)
[2] = oral dose

plasma elimination half-life [2]: about 2 hours
SMILES: CCc1c(C)[nH]c2c1C(=O)C(CN1CCOCC1)CC2 (centres unmarked) [molindone, 3-Ethyl-6,7-dihydro-2-methyl-5-(morpholinomethyl)indol-4(5H)-one]
solubility [1]: greater solubility in acidic to slightly acidic media than in neutral to slightly alkaline pH values
